This passage reports TGI and GI50 results from PubChem BioAssay (NCI).

Among the test systems are BT-549 breast; CCRF-CEM leukemia; HCC-2998 colon; OVCAR-8 ovarian; SK-MEL-28 melanoma; SN12C renal; T-47D breast; RPMI-8226 leukemia.
Common to all, as to test: NCI-60 cell line screen, 48 h

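How tested: cells in 96-well plates exposed to compound for 48 hours at five concentrations. GI50 is the concentration that inhibits growth by half. TGI marks complete inhibition of growth.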

For the compound `Cc1ccc(C(=O)c2[nH]c(Nc3cc(C)ccn3)c(C(=S)Nc3ccccc3)c2N)cc1`, the TGI in the assay on BT-549 breast, in the assay with CCRF-CEM leukemia, with HCC-2998 colon, in the assay with OVCAR-8 ovarian, in the assay with SK-MEL-28 melanoma and in the assay with SN12C renal was more than 100 µM in each case. The compound also registered a TGI with T-47D breast of more than 100 µM.
For `CC1=CCC[C@H]2[C@](C)(CC3=CC(=O)C4SCCSC4C3=O)[C@@H](C)CC[C@]12C` (some centres undefined), the TGI was found to be 39.7 µM with BT-549 breast; 48.7 µM in the assay with CCRF-CEM leukemia; 55.8 µM in the assay with HCC-2998 colon; 39.6 µM with OVCAR-8 ovarian; 41.8 µM in the assay with RPMI-8226 leukemia; 38.4 µM in the assay with SK-MEL-28 melanoma. Further, the TGI in the assay on SN12C renal is 28.8 µM; with T-47D breast, more than 100 µM.
`NS(=O)(=O)c1nnc(NSc2ccc([N+](=O)[O-])cc2)s1`: the TGI with BT-549 breast, in the assay on HCC-2998 colon, in the assay on OVCAR-8 ovarian, in the assay on RPMI-8226 leukemia, in the assay with SK-MEL-28 melanoma and in the assay with SN12C renal was more than 100 µM throughout. The compound further had a TGI in the assay on T-47D breast of more than 100 µM.
With `CCN(C(=O)N[C@H](C(=O)N[C@@H](C)C(=O)OC)C(C)C)c1ccccc1`, the TGI is more than 100 µM with BT-549 breast; more than 100 µM with CCRF-CEM leukemia; 33 µM in the assay on HCC-2998 colon; 63.2 µM with OVCAR-8 ovarian; more than 100 µM in the assay with RPMI-8226 leukemia; more than 100 µM in the assay on SK-MEL-28 melanoma. Further, the TGI with SN12C renal and with T-47D breast was more than 100 µM throughout.
Consider `NC(=S)N=Nc1c(O)cc(Nc2ccc(Cl)cc2Cl)c2ccccc12`, for which the TGI is 97.5 µM with BT-549 breast; more than 100 µM with HCC-2998 colon; 93.9 µM with OVCAR-8 ovarian; more than 100 µM in the assay with SK-MEL-28 melanoma; more than 100 µM in the assay on SN12C renal; 93.6 µM with T-47D breast.
For the compound `CN1c2ccccc2C(=O)NC12CCN(CC1COc3ccccc3O1)CC2` (centres undefined), the TGI with CCRF-CEM leukemia is more than 100 µM; in the assay with HCC-2998 colon it was more than 100 µM; in the assay on OVCAR-8 ovarian, more than 100 µM; in the assay on RPMI-8226 leukemia, more than 100 µM; in the assay with SK-MEL-28 melanoma, more than 100 µM; with T-47D breast it was 98.8 µM.
Consider `C=C1CC=CC(C)(C)C1C/C=C(\C)C(O)CBr` (centres undefined), for which the TGI in the assay on BT-549 breast is more than 100 µM; with CCRF-CEM leukemia, more than 100 µM; in the assay on HCC-2998 colon, more than 100 µM; in the assay on OVCAR-8 ovarian it was more than 100 µM; with RPMI-8226 leukemia, 66.8 µM; in the assay with SK-MEL-28 melanoma, more than 100 µM. The same compound gave a TGI in the assay on SN12C renal of more than 100 µM.
As to `OC(c1ccco1)C(F)(F)c1nc2ccccc2o1` (centres undefined), the TGI in the assay with BT-549 breast, in the assay with CCRF-CEM leukemia, in the assay with HCC-2998 colon, in the assay on OVCAR-8 ovarian, in the assay with RPMI-8226 leukemia and in the assay on SK-MEL-28 melanoma was more than 100 µM each time. This compound came in with a TGI in the assay on T-47D breast of more than 100 µM.
Take `C/C(=N\Nc1nc2ccccc2s1)c1cccnn1`: the TGI in the assay with BT-549 breast was 60 µM; in the assay with HCC-2998 colon, 89.9 µM; in the assay on OVCAR-8 ovarian, 12.2 µM; in the assay with RPMI-8226 leukemia, more than 100 µM; with SK-MEL-28 melanoma, more than 100 µM; with SN12C renal, more than 100 µM.
As for `CC(C)Cc1c(C#N)c(C#N)c(N)n1Cc1ccccc1`, the TGI with BT-549 breast, with CCRF-CEM leukemia, with HCC-2998 colon, in the assay on OVCAR-8 ovarian, with RPMI-8226 leukemia and in the assay on SN12C renal was more than 100 µM each time. In the assay with T-47D breast, the TGI was more than 100 µM.
Turning to `CNc1ccc2c(c1)Cc1ccccc1-2`, the TGI in the assay on CCRF-CEM leukemia is more than 100 µM; with HCC-2998 colon it was more than 100 µM; in the assay with OVCAR-8 ovarian it was 59.6 µM; in the assay on RPMI-8226 leukemia, more than 100 µM; in the assay on SK-MEL-28 melanoma, more than 100 µM; with SN12C renal, more than 100 µM. The TGI in the assay on T-47D breast was more than 100 µM.
For the compound `FC(F)=C(c1ccc(-c2ccc(Cl)cc2)cc1)C(F)(F)F`, the TGI is 39.3 µM in the assay with BT-549 breast; 62.1 µM with CCRF-CEM leukemia; 57.9 µM in the assay with OVCAR-8 ovarian; 51.8 µM with RPMI-8226 leukemia; 28.4 µM in the assay on SK-MEL-28 melanoma; 45.4 µM in the assay on SN12C renal. Besides, the TGI with T-47D breast was determined as 76.8 µM.
Regarding `COC(=O)c1cc(C(=O)OC)cc(-c2ccc3c(c2)-c2nc4c(c(-c5ccc(OC)cc5)c2CC3)CCc2ccc(-c3cc(C(=O)OC)cc(C(=O)OC)c3)cc2-4)c1`, the TGI in the assay with BT-549 breast, in the assay on HCC-2998 colon, in the assay on RPMI-8226 leukemia, with SK-MEL-28 melanoma, in the assay on SN12C renal and in the assay on T-47D breast was more than 100 µM throughout.
For `COc1cc(OC)c(C2c3cc4c(cc3OC(N3CCOCC3)C2C)OCO4)c(OC)c1` (centres undefined), the TGI in the assay on CCRF-CEM leukemia, with HCC-2998 colon, in the assay on OVCAR-8 ovarian, with RPMI-8226 leukemia, in the assay on SK-MEL-28 melanoma and in the assay with SN12C renal was more than 100 µM in each case. Besides, the TGI in the assay on T-47D breast was more than 100 µM.
On to `COc1ccc(/C=N/Nc2nc3ccccc3c(=O)n2-c2ccccc2)c(OCc2ccccc2)c1`, for which the TGI with CCRF-CEM leukemia, in the assay with HCC-2998 colon, in the assay with OVCAR-8 ovarian, in the assay on RPMI-8226 leukemia, with SK-MEL-28 melanoma and with SN12C renal was more than 100 µM each time. The TGI in the assay with T-47D breast was more than 100 µM. Also, the GI50 in the assay with RPMI-8226 leukemia was more than 100 µM.
Turning to `O=C1c2c(c3c4ccc(Br)cc4oc3c3[nH]c4ccccc4c23)C(=O)N1O`, the GI50 in the assay with CCRF-CEM leukemia was 0.0418 µM; with HCC-2998 colon, 1.94 µM; in the assay on OVCAR-8 ovarian it was 1.45 µM; in the assay on T-47D breast, 1.92 µM. Also, the TGI in the assay on CCRF-CEM leukemia, in the assay with HCC-2998 colon, with OVCAR-8 ovarian and in the assay on T-47D breast was more than 100 µM throughout.
As for `CC1OC(n2cc(F)c(=O)[nH]c2=O)C(O[Si](C)(C)C(C)(C)C)C1O[Si](C)(C)C(C)(C)C` (centres undefined), the TGI with BT-549 breast is 26.1 µM; in the assay with CCRF-CEM leukemia it was more than 100 µM; with HCC-2998 colon it was 28.2 µM; with OVCAR-8 ovarian, 28.9 µM; in the assay on RPMI-8226 leukemia, 35.4 µM; in the assay on SN12C renal, 24.9 µM. This compound also had a TGI in the assay on T-47D breast of 27.1 µM.
Turning to `O=c1c(Cc2ccccc2)c(-c2ccccc2)[nH]n1C1=NCCN1`, the TGI with BT-549 breast, in the assay on CCRF-CEM leukemia, in the assay with OVCAR-8 ovarian, with RPMI-8226 leukemia and with T-47D breast was more than 100 µM in each case.
